Data from patent US8138189B2, “Substituted benzene compounds as modulators of the glucocorticoid receptor” (Hoffman-La Roche Inc., priority 2009, dated 2012).
pKi: −log10 of the molar value.

Each molecule was assayed against T1, full length human recombinant glucocorticoid receptor (Homo sapiens, UniProt P04150) (assay: Glucocorticoid Receptor Binding Assay (fluorescence polarization competitor assay, Fluormone GS Far Red tracer)).
T1 construct: partially purified full length human recombinant glucocorticoid receptor; purchased Panvera/Invitrogen PV4302
T1 sequence (P04150 1-777): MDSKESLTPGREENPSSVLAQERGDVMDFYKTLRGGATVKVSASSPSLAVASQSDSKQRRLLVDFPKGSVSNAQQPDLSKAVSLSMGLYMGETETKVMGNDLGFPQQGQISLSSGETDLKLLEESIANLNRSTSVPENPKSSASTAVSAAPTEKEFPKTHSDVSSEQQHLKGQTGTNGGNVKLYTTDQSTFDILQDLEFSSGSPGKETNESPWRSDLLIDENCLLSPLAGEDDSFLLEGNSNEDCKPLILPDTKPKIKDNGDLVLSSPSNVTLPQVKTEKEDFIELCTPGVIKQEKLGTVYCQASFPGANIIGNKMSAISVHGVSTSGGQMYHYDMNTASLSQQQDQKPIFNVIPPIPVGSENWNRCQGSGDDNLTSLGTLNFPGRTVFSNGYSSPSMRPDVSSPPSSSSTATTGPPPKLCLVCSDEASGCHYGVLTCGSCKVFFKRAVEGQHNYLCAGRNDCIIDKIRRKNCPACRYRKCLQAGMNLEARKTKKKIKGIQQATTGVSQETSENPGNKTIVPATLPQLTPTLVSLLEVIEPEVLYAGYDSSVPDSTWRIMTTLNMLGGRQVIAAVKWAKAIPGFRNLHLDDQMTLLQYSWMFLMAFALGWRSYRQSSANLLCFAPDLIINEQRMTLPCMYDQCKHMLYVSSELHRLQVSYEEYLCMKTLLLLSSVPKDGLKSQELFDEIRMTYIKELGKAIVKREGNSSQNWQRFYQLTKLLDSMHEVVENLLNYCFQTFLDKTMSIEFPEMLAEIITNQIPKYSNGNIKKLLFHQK
Protocol: Glucocorticoid Receptor Binding Assay
The ability of the substances to bind to the glucocorticoid receptor was determined with the help of a commercial Glucocorticoid Receptor Competitor Assay far red kit provided by Panvera/Invitrogen (PV4302). This kit is used as provided by the supplier. It contains some partially purified full length human recombinant glucocorticoid receptor, a coactivator related GR stabilizing peptide, a tight-binding fluorescent GR ligand Fluormone™ GS Far Red as labeled tracer and a screening buffer. All reagents are prepared and the assay is run according to the recommendations of the kit manufacturer.
Briefly, the GR stabilizing peptide and the human recombinant glucocorticoid receptor are both diluted with the screening buffer (pH 7.4) and are gently mixed (no vortexing) just before the assay and kept on ice until use. The fluorescent-labeled ligand is also diluted with the screening buffer just before the assay and kept on ice until use. The substances to test are pre-diluted in pure DMSO then some water is added to get an intermediate 4.2% DMSO stock solution. Ten microliter of the intermediate stock solution is gently mixed with 5 μl of diluted fluorescent-labeled ligand and 5 μl of diluted human recombinant glucocorticoid receptor in a 384-well plate (low volume, ultraclear, glass plate from Greiner ref 788896). The plate is centrifuged, sealed and incubated for 3 hours at 22° C. in the dark. The polarized fluorescence is measured with a Zeiss-HTS reader or any equivalent equipment (610-660 nm).
All compounds were tested to determine IC50 in a serial dilution experiment. The concentration at which 50% inhibition of the fluorescent GR ligand Fluormone™ GS Far Red is obtained (the IC50) is determined after fitting with a sigmoidal dose-response model of a plot of the logarithm of the concentration versus percent inhibition measured for the different concentrations. Ki's were calculated from IC50 based on Cheng-Prusoff equation (Cheng, Y, Prusoff, W H (1973) Biochem Pharmacol 22, 3099-3108): Ki=IC50/[1+D/Kd] wherein D is the concentration of the fluorescent ligand and Kd is the binding constant for the fluorescent ligand binding to the receptor under the conditions used in the competition experiment.

pKi | Compound
6.94 | COC(=O)c1ccc(N(C)C(=O)c2ccc([C@@H](C)[C@@](O)(c3ccnc(Cl)c3)C(F)(F)F)c(Cl)c2)cc1 (relative stereo) [Example 28, 4-({3-Chloro-4-[-2-(2-chloro-pyridin-4-yl)-3,3,3-trifluoro-2-hydroxy-1-methyl-propyl]-benzoyl}-methyl-amino)-benzoic acid methyl ester]
7.77 | CCOC(=O)c1cc(Oc2ccc(Cl)c([C@H](C)[C@](O)(c3ccc(=O)n(C)c3)C(F)(F)F)c2)ccc1Cl (stereo in doubt) [Example 195, 2-Chloro-5-{4-chloro-3-[3,3,3-trifluoro-2-hydroxy-1-methyl-2-(1-methyl-6-oxo-1,6-dihydro-pyridin-3-yl)-propyl]-phenoxy}-benzoic acid ethyl ester]
7.34 | C[C@@H](c1ccc(-c2ccc(C(=O)O)c(F)c2)cc1Cl)[C@](O)(c1ccc(=O)n(C)c1)C(F)(F)F [Example 167, 3′-Chloro-3-fluoro-4′-[3,3,3-trifluoro-2-hydroxy-1-methyl-2-(1-methyl-6-oxo-1,6-dihydro-pyridin-3-yl)-propyl]-propylphiphenyl-4-carboxylic acid]
8.40 | Cc1cc(C(O)(C(C)c2ccc(OCc3ccc(C(=O)O)cc3)cc2Cl)C(F)(F)F)ccn1 (stereo not drawn) [Example 94, 4-{3-Chloro-4-[3,3,3-trifluoro-2-hydroxy-1-methyl-2-(2-methyl-pyridin-4-yl)-propyl]-phenoxymethyl}-benzoic acid]
6.81 | COC(=O)Cc1ccc(NC(=O)c2ccc([C@@H](C)[C@@](O)(c3ccnc(Cl)c3)C(F)(F)F)c(Cl)c2)cc1 (relative stereo) [Example 38, (4-{3-Chloro-4-[2-(2-chloro-pyridin-4-yl)-3,3,3-trifluoro-2-hydroxy-1-methyl-propyl]-benzoylamino}-phenyl)-acetic acid methyl ester]
8.14 | COC(=O)c1ccc(-c2ccc([C@H](C)[C@](O)(c3ccc(=O)n(C)c3)C(F)(F)F)c(Cl)c2)cc1OC (stereo in doubt) [Example 173, 3′-Chloro-3-methoxy-4′-[3,3,3-trifluoro-2-hydroxy-1-methyl-2-(1-methyl-6-oxo-1,6-dihydro-pyridin-3-yl)-propyl]-biphenyl-4-carboxylic acid methyl ester]
7.95 | Cc1cc(C(O)(C(C)c2ccc(Oc3cccc(C(=O)O)c3)cc2Cl)C(F)(F)F)ccn1 (stereo not drawn) [Example 59, 3-{3-Chloro-4-[3,3,3-trifluoro-2-hydroxy-1-methyl-2-(2-methyl-pyridin-4-yl)-propyl]-phenoxy}-benzoic acid]
8.59 | COC(=O)c1ccc(Oc2ccc([C@@H](C)[C@@](O)(c3ccc(=O)n(C)c3)C(F)(F)F)c(Cl)c2Cl)cc1F (stereo in doubt) [Example 199, 4-{2,3-Dichloro-4-[3,3,3-trifluoro-2-hydroxy-1-methyl-2-(1-methyl-6-oxo-1,6-dihydro-pyridin-3-yl)-propyl]-phenoxy}-2-fluoro-benzoic acid methyl ester]
7.83 | COC(=O)c1ccc(-c2ccc([C@@H](C)[C@@](O)(c3ccnc(Cl)c3)C(F)(F)F)c(Cl)c2)cc1F (relative stereo) [Example 53, 3′-Chloro-4′-[2-(2-chloro-pyridin-4-yl)-3,3,3-trifluoro-2-hydroxy-1-methyl-propyl]-3-fluoro-biphenyl-4-carboxylic acid methyl ester]
7.06 | COC(=O)c1ccc(Oc2ccc(C(C)C(O)(c3ccnc(C)c3)C(F)(F)F)c(Cl)c2)nn1 (stereo not drawn) [Example 104, 6-{3-Chloro-4-[3,3,3-trifluoro-2-hydroxy-1-methyl-2-(2-methyl-pyridin-4-yl)-propyl]-phenoxy}-pyridazine-3-carboxylic acid methyl ester]
6.38 | C[C@@H](c1ccc(-c2ccc(CC(=O)O)cc2)cc1Cl)[C@](O)(c1ccc(=O)[nH]c1)C(F)(F)F (relative stereo) [Example 182, {3′-Chloro-4′-[3,3,3-trifluoro-2-hydroxy-1-methyl-2-(6-oxo-1,6-dihydro-pyridin-3-yl)-propyl]-biphenyl-4-yl}-acetic acid]
7.61 | C[C@H](c1ccc(COc2ncc(C(=O)O)cn2)cc1Cl)[C@@](O)(c1ccnc(Cl)c1)C(F)(F)F (stereo in doubt) [Example 125, 2-{3-Chloro-4-[2-(2-chloro-pyridin-4-yl)-3,3,3-trifluoro-2-hydroxy-1-methyl-propyl]-benzyloxy}-pyrimidine-5-carboxylic acid]
7.53 | C[C@H](c1ccc(-c2ccc(C(=O)O)c(F)c2)cc1Cl)[C@@](O)(c1ccnc(Cl)c1)C(F)(F)F (stereo in doubt) [Example 54, 3′-Chloro-4′-[2-(2-chloro-pyridin-4-yl)-3,3,3-trifluoro-2-hydroxy-1-methyl-propyl]-3-fluoro-biphenyl-4-carboxylic acid]
8.82 | C[C@@H](c1ccc(OCc2ccc(C(=O)O)cc2)cc1Cl)[C@](O)(c1cnc2ccccc2c1)C(F)(F)F (stereo in doubt) [Example 141, 4-[3-Chloro-4-(3,3,3-trifluoro-2-hydroxy-1-methyl-2-quinolin-3-yl-propyl)-phenoxymethyl]-benzoic acid]
8.41 | C[C@H](c1ccc(Oc2ncc(C(=O)O)cc2Cl)cc1Cl)[C@@](O)(c1ccc(C#N)n1C)C(F)(F)F (stereo in doubt) [Example 233, 5-Chloro-6-{3-chloro-4-[2-(5-cyano-1-methyl-1H-pyrrol-2-yl)-3,3,3-trifluoro-2-hydroxy-1-methyl-propyl]-phenoxy}-nicotinic acid]
7.95 | Cc1cc([C@](O)([C@H](C)c2ccc(-c3ccc(C(=O)O)c(F)c3)cc2Cl)C(F)(F)F)sc1C#N (relative stereo) [Example 229, 3′-Chloro-4′-[2-(5-cyano-4-methyl-thiophen-2-yl)-3,3,3-trifluoro-2-hydroxy-1-methyl-propyl]-3-fluoro-biphenyl-4-carboxylic acid]
6.36 | COc1cc(Oc2ccc(Cl)c(C(C)C(O)(c3ccnc(Cl)c3)C(F)(F)F)c2)ccc1C(=O)O (stereo not drawn) [Example 131, 4-{4-Chloro-3-[2-(2-chloro-pyridin-4-yl)-3,3,3-trifluoro-2-hydroxy-1-methyl-propyl]-phenoxy}-2-methoxy-benzoic acid]
6.50 | CC(c1ccc(NC(=O)c2cccc(C(=O)O)c2)cc1Cl)C(O)(c1ccnc(Cl)c1)C(F)(F)F (stereo not drawn) [Example 70, N-{3-Chloro-4-[2-(2-chloro-pyridin-4-yl)-3,3,3-trifluoro-2-hydroxy-1-methyl-propyl]-phenyl}-isophthalamic acid]
7.17 | CCn1cc([C@@](O)([C@@H](C)c2ccc(-c3ccc(C(=O)O)c(F)c3)cc2Cl)C(F)(F)F)ccc1=O (relative stereo) [Example 186, 3′-Chloro-4′-[2-(1-ethyl-6-oxo-1,6-dihydro-pyridin-3-yl)-3,3,3-trifluoro-2-hydroxy-1-methyl-propyl]-3-fluoro-biphenyl-4-carboxylic acid]
8.96 | Cc1cc(C(=O)O)cnc1Oc1ccc([C@H](C)[C@](O)(c2cc(C)c(=O)n(C)c2)C(F)(F)F)c(Cl)c1 (relative stereo) [Example 252, 6-{3-Chloro-4-[2-(1,5-dimethyl-6-oxo-1,6-dihydro-pyridin-3-yl)-3,3,3-trifluoro-2-hydroxy-1-methyl-propyl]-phenoxy}-5-methyl-nicotinic acid]
6.82 | CCOC(=O)c1cccc(-c2ccc([C@@H](C)[C@@](O)(c3ccnc(Cl)c3)C(F)(F)F)c(Cl)c2)c1 (stereo in doubt) [Example 51, 3′-Chloro-4′-[2-(2-chloro-pyridin-4-yl)-3,3,3-trifluoro-2-hydroxy-1-methyl-propyl]-biphenyl-3-carboxylic acid ethyl ester]
